Results on nine compounds are retold here after patent US20240376097A1, “BCL-2 Inhibitor” (BeiGene Ltd., priority 2020, published 2024).

Test [1] concerns the target Recombinant human Bcl-2 protein (Homo sapiens (Human), UniProt P10415). The test is described as follows: Bcl-2 TR-FRET Assay. The test is classed as binding. The method in brief:
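0.05 nM recombinant Bcl-2 preincubated 0.5 h at room temperature with 10-point compound dilutions (top final 1, 0.1, 0.02 or 0.01 uM) in pH 7.5 phosphate buffer. FITC-Bak peptide (0.5 nM) and anti-6His Tb cryptate then added for 1 h. TR-FRET read; IC50 from four-parameter logistic fit.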

Test [2] deals with recombinant human Bcl-2-G101V protein (Homo sapiens (Human), UniProt P10415, G101V). Put plainly: Bcl-2-G101V TR-FRET Assay. The test is classed as binding. The settings on record: Bcl-2 G101V mutant, TR-FRET; read-out: Biochemical assay (IC50, nM) Bcl-2 G101V. The method in brief: (§1)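 IC50 values derive from four-parameter logistic fitting of percent inhibition data. That inhibition of ligand binding to Bcl-2-G101V is computed from the 490 nm/520 nm TR-FRET ratio under 337 nm excitation, over a rising compound concentration series.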

In test [3] the test system is recombinant human Bcl-2-G101V protein. Put plainly: Bcl-2-G101V TR-FRET Assay. The test is classed as binding. As to conditions: ratio of biochemical IC50 Bcl-2 G101V / Bcl-2 WT. The method in brief:
as §1

The subject of test [4] is RS4;11 (BCL-2 dependent acute lymphoblastic leukemia cell line). The test is described as follows: RS4;11 Cell Proliferation Assay. The class given is cell-based. The settings on record: Homo sapiens, RS4-11, RS4;11 cells, read-out: Cellular proliferation assay (IC50, nM) RS4. The method in brief: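 RS4;11 cells, 50,000 per well in RPMI-1640 with 10% FBS, treated 48 h at 37 °C with a 10-point dilution series topping at 1 μM. Viability read by CellTiter-Glo ATP luminescence; mean IC50 reported.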

Test [5] relates to BCL-2 G101V knock-in cell line H96 (derive from RS4;11). Put plainly: Bcl 2-G101V Knock-In RS4;11 Cell Proliferation Assay. The class given is cell-based. The settings on record: Homo sapiens, RS4;11 Bcl-2 G101V knock-in clone H96, 48 hrs, CellTiter-GLO, read-out: Cellular proliferation assay (IC50, nM) RS4. The method in brief:
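H96, a CRISPR-generated RS4;11 clone carrying BCL2-G101V knock-in (WES/RNA-seq validated), seeded 50,000 per well and exposed 48 h at 37 °C to 10-point dilutions topping at 1 or 10 μM. Viability by CellTiter-Glo luminescence; mean IC50.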

The target of test [6] is recombinant human Bcl-2 D103Y protein (Homo sapiens (Human), UniProt P10415, D103Y). The test is described as follows: Bcl-2-D103Y Biochemical Assay (TR-FRET). As to conditions: for IC50: TR-FRET, FITC labeled Bak peptide; for Ratio of Bcl-2 D103Y/Bcl-2 WT: ratio of IC50. The class given is binding. The method in brief:
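Recombinant human Bcl-2 D103Y binding to its ligand measured by TR-FRET (ex 337 nm, em 490/520 nm) with increasing compound concentrations. Percent inhibition from the 490/520 nm ratio; IC50 from four-parameter logistic fit.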

[7] abbreviates: Bcl-2 wild type, TR-FRET, read-out: Biochemical assay (IC50, nM) Bcl-2 WT.
Setting [8] is: wild type Bcl-2, unit inferred, read-out: Bcl-2 WT.

Like-named read-outs stand apart in the source and are kept apart here.

`[2H]C([2H])([2H])Oc1ccc(CN2CCN(C3CC4(C3)CN(c3ccc(C(=O)NS(=O)(=O)c5ccc(NC[C@H]6CC[C@](C)(O)CC6)c([N+](=O)[O-])c5)c(Oc5cnc6[nH]cc(F)c6c5)c3)C4)[C@H](c3ccccc3C(C)C)C2)cc1OC([2H])([2H])[2H]` [Example 197, 4-(6-((R)-4-(3,4-bis(methoxy-d3)benzyl)-2-(2-isopropylphenyl)piperazin-1-yl)-2-azaspiro[3.3]heptan-2-yl)-2-((3-fluoro-1H-pyrrolo[2,3-b]pyridin-5-yl)oxy)-N-((4-((((1r,4r)-4-hydroxy-4-methylcyclohexyl)methyl)amino)-3-nitrophenyl)sulfonyl)benzamide]: the IC50 in test [1] (setting [7]) came out at 0.076 nM; in test [1] (setting [8]) it was 0.076 nM; in test [2], 0.15 nM; in test [4] it was 0.16 nM; in test [5], 0.29 nM; in test [6], 0.089 nM. For the same compound, the “Ratio of Bcl-2 G101V/WT” value in test [3] is listed as 1.9. Moreover, the “Ratio of Bcl-2 D103Y/Bcl-2 WT” value in test [6] was 1.2.
Consider `COc1cc(CN2CCN(C3CC4(C3)CN(c3ccc(C(=O)NS(=O)(=O)c5ccc(NC[C@H]6CC[C@](C)(O)CC6)c([N+](=O)[O-])c5)c(Oc5cnc6[nH]cc(F)c6c5)c3)C4)[C@H](c3ccccc3C(C)C)C2)cc2c1OCC2(C)C` [Example 295, 2-((3-fluoro-1H-pyrrolo[2,3-b]pyridin-5-yl)oxy)-N-((4-((((1r,4r)-4-hydroxy-4-methylcyclohexyl)methyl)amino)-3-nitrophenyl)sulfonyl)-4-(6-((R)-2-(2-isopropylphenyl)-4-((7-methoxy-3,3-dimethyl-2,3-dihydrobenzofuran-5-yl)methyl)piperazin-1-yl)-2-azaspiro[3.3]heptan-2-yl)benzamide], for which the IC50 came out at 0.19 nM in test [1] (setting [7]); 0.19 nM in test [1] (setting [8]); 0.56 nM in test [2]; 0.29 nM in test [4]; 0.49 nM in test [5]; 0.25 nM in test [6]. Besides, the “Ratio of Bcl-2 G101V/WT” value in test [3] came out at 3.0. The “Ratio of Bcl-2 D103Y/Bcl-2 WT” value in test [6] amounted to 1.3.
With `COc1cc(CN2CCN(C3CC4(C3)CN(c3ccc(C(=O)NS(=O)(=O)c5ccc(NC[C@H]6CC[C@](C)(O)CC6)c([N+](=O)[O-])c5)c(Oc5cnc6[nH]cc(F)c6c5)c3)C4)[C@H](c3ccccc3C(C)C)C2)ccc1N1CC(OC)C1` [Example 359, 2-((3-fluoro-1H-pyrrolo[2,3-b]pyridin-5-yl)oxy)-N-((4-((((1r,4r)-4-hydroxy-4-methylcyclohexyl)methyl)amino)-3-nitrophenyl)sulfonyl)-4-(6-((R)-2-(2-isopropylphenyl)-4-(3-methoxy-4-(3-methoxyazetidin-1-yl)benzyl)piperazin-1-yl)-2-azaspiro[3.3]heptan-2-yl)benzamide], the IC50 amounted to 0.19 nM in test [1] (setting [7]); 0.19 nM in test [1] (setting [8]); 0.64 nM in test [2]; 0.16 nM in test [4]; 0.63 nM in test [5]; 0.44 nM in test [6]. Besides, in test [3], the “Ratio of Bcl-2 G101V/WT” value was determined as 3.4. For the same compound, the “Ratio of Bcl-2 D103Y/Bcl-2 WT” value in test [6] was 2.4.
As to `CC(C)c1ccccc1C1CN(Cc2cccc3c2OCCO3)CCN1C1CC2(CCN(c3ccc(C(=O)NS(=O)(=O)c4ccc(NC[C@H]5CC[C@](C)(O)CC5)c([N+](=O)[O-])c4)c(Oc4cnc5[nH]ccc5c4)c3)CC2)C1` (stereo partly drawn) [Example 79, 2-((1H-pyrrolo[2,3-b]pyridin-5-yl)oxy)-4-(2-(4-((2,3-dihydrobenzo [b][1,4]dioxin-5-yl)methyl)-2-(2-isopropylphenyl)piperazin-1-yl)-7-azaspiro[3.5]nonan-7-yl)-N-((4-((((1r,4r)-4-hydroxy-4-methylcyclohexyl)methyl)amino)-3-nitrophenyl)sulfonyl)benzamide], the IC50 in test [1] (setting [7]) came out at 0.16 nM; in test [1] (setting [8]) it was 0.16 nM; in test [2], 0.51 nM; in test [4], 0.35 nM; in test [5], 1 nM; in test [6] it was 0.19 nM. The “Ratio of Bcl-2 G101V/WT” value in test [3] came out at 3.2. The “Ratio of Bcl-2 D103Y/Bcl-2 WT” value in test [6] was 1.2.
On to `CCOc1cc(CN2CCN(C3CC4(CCN(c5ccc(C(=O)NS(=O)(=O)c6ccc(NC[C@H]7CC[C@](C)(O)CC7)c([N+](=O)[O-])c6)c(Oc6cnc7[nH]ccc7c6)c5)CC4)C3)C(c3ccccc3C(C)C)C2)ccc1OC` (stereo partly drawn) [Example 124, 2-((1H-pyrrolo[2,3-b]pyridin-5-yl)oxy)-4-(2-(4-(3-ethoxy-4-methoxybenzyl)-2-(2-isopropylphenyl)piperazin-1-yl)-7-azaspiro[3.5]nonan-7-yl)-N-((4-((((1r,4r)-4-hydroxy-4-methylcyclohexyl)methyl)amino)-3-nitrophenyl)sulfonyl)benzamide], for which the IC50 in test [1] (setting [7]) stood at 0.15 nM; in test [1] (setting [8]), 0.15 nM; in test [2], 0.51 nM; in test [4] it was 0.24 nM; in test [5], 1.2 nM; in test [6], 0.21 nM. The “Ratio of Bcl-2 G101V/WT” value in test [3] is 3.4. Moreover, in test [6], the “Ratio of Bcl-2 D103Y/Bcl-2 WT” value came to 1.4.
`CC(C)c1ccccc1C1CN(Cc2ccc(F)cc2F)CCN1C1CC2(CCN(c3ccc(C(=O)NS(=O)(=O)c4ccc(NC[C@H]5CC[C@](C)(O)CC5)c([N+](=O)[O-])c4)c(Oc4cnc5[nH]ccc5c4)c3)CC2)C1` (stereo partly drawn) [Example 50]: the IC50 is 0.18 nM in test [1] (setting [7]); 0.18 nM in test [1] (setting [8]); 1.2 nM in test [2]; 0.8 nM in test [4]; 7.9 nM in test [5]; 1.2 nM in test [6]. For the same compound, the “Ratio of Bcl-2 G101V/WT” value in test [3] stood at 6.7. Further, the “Ratio of Bcl-2 D103Y/Bcl-2 WT” value in test [6] came out at 6.6.
For `COc1cc(CN2CCN(C3CC4(CCN(c5ccc(C(=O)NS(=O)(=O)c6ccc(NC[C@H]7CC[C@](C)(O)CC7)c([N+](=O)[O-])c6)c(Oc6cnc7[nH]cc(F)c7c6)c5)CC4)C3)[C@H](c3ccccc3C(C)C)C2)cc2c1OCCC2` [Example 299, 2-((3-fluoro-1H-pyrrolo[2,3-b]pyridin-5-yl)oxy)-N-((4-((((1r,4r)-4-hydroxy-4-methylcyclohexyl)methyl)amino)-3-nitrophenyl)sulfonyl)-4-(2-((R)-2-(2-isopropylphenyl)-4-((8-methoxychroman-6-yl)methyl)piperazin-1-yl)-7-azaspiro[3.5]nonan-7-yl)benzamide], the IC50 in test [1] (setting [7]) worked out at 0.13 nM; in test [1] (setting [8]), 0.13 nM; in test [2], 0.25 nM; in test [4], 0.27 nM; in test [5], 0.47 nM; in test [6], 0.13 nM. For the same compound, the “Ratio of Bcl-2 G101V/WT” value in test [3] is 1.9. In addition, the “Ratio of Bcl-2 D103Y/Bcl-2 WT” value in test [6] is 1.0.
In the case of `CC(C)c1ccccc1C1CN(Cc2ccoc2)CCN1C1CC2(CCN(c3ccc(C(=O)NS(=O)(=O)c4ccc(NC[C@H]5CC[C@](C)(O)CC5)c([N+](=O)[O-])c4)c(Oc4cnc5[nH]ccc5c4)c3)CC2)C1` (stereo partly drawn) [Example 20, 2-((1H-pyrrolo[2,3-b]pyridin-5-yl)oxy)-4-(2-(4-(furan-3-ylmethyl)-2-(2-isopropylphenyl)piperazin-1-yl)-7-azaspiro[3.5]nonan-7-yl)-N-((4-((((1r,4r)-4-hydroxy-4-methylcyclohexyl)methyl)amino)-3-nitrophenyl)sulfonyl)benzamide], the IC50 was determined as 0.053 nM in test [1] (setting [7]); 0.053 nM in test [1] (setting [8]); 0.58 nM in test [2]; 0.62 nM in test [4]; 5.91 nM in test [5]; 0.25 nM in test [6]. Besides, in test [3], the “Ratio of Bcl-2 G101V/WT” value is on record as 10.9. Besides, the “Ratio of Bcl-2 D103Y/Bcl-2 WT” value in test [6] was found to be 4.6.
With `COc1cccc(CN2CCN(C3CC4(CCN(c5ccc(C(=O)NS(=O)(=O)c6cc7c(c([N+](=O)[O-])c6)N[C@H](C[C@H]6CC[C@H](O)CC6)CO7)c(Oc6cnc7[nH]ccc7c6)c5)CC4)C3)C(c3ccccc3C(C)C)C2)c1` (stereo partly drawn) [Example 45], the IC50 in test [1] (setting [7]) amounted to 0.24 nM; in test [1] (setting [8]) it was 0.24 nM; in test [2] it was 0.95 nM; in test [4], 0.41 nM; in test [5], 3.29 nM; in test [6] it was 0.54 nM. The “Ratio of Bcl-2 G101V/WT” value in test [3] turned out to be 4.0. In test [6], the “Ratio of Bcl-2 D103Y/Bcl-2 WT” value came to 2.3.
